According to ChEMBL document CHEMBL1255251, “Effects of Escherichia coli lipopolysaccharide on telithromycin pharmacokinetics in rats: inhibition of metabolism via CYP3A” (Antimicrob Agents Chemother, 2008):

Tests used:
Rattus norvegicus [1] = experiment: AUC in Sprague-Dawley rat at 50 mg/kg, iv pretreated with Escherichia coli lipopolysaccharide (Rvb=1570 +/- 240 ug/min/ml); assay type: ADME, organism-based, Plasma; parameters: dose 50 mg/kg, route intravenous; settings: in vivo
[2] = Half life in Sprague-Dawley rat at 50 mg/kg, iv pretreated with Escherichia coli lipopolysaccharide (Rvb=159 +/- 56.3 min); assay type: ADME, organism-based; parameters: dose 50 mg/kg, route intravenous; settings: in vivo
[3] = Clearance in Sprague-Dawley rat at 50 mg/kg, iv pretreated with Escherichia coli lipopolysaccharide (Rvb=32.4+/- 5.25 ml/min/kg); assay type: ADME, organism-based; parameters: dose 50 mg/kg, route intravenous; settings: in vivo
[4] = Renal clearance in Sprague-Dawley rat at 50 mg/kg, iv pretreated with Escherichia coli lipopolysaccharide (Rvb=5.29 +/- 0.643 ml/min/kg); assay type: ADME, organism-based, Kidney; parameters: dose 50 mg/kg, route intravenous; settings: in vivo, read-out: CL_renal
Rattus norvegicus [5] = experiment: Nonrenal clearance in Sprague-Dawley rat at 50 mg/kg, iv pretreated with Escherichia coli lipopolysaccharide (Rvb=27.2 +/- 5.02 ml/min/kg); assay type: ADME, organism-based; parameters: dose 50 mg/kg, route intravenous; settings: in vivo
[6] = Apparent volume of distribution in Sprague-Dawley rat at 50 mg/kg, iv pretreated with Escherichia coli lipopolysaccharide (Rvb=4,950 +/- 1160 ml/kg); assay type: ADME, organism-based; parameters: dose 50 mg/kg, route intravenous; settings: in vivo, read-out: Vdss(app)
Rattus norvegicus [7] = experiment: AUC in Sprague-Dawley rat at 50 mg/kg, po pretreated with Escherichia coli lipopolysaccharide (Rvb=609 +/- 323 ug/min/ml); assay type: ADME, organism-based, Plasma; parameters: dose 50 mg/kg, route oral; settings: in vivo
[8] = Half life in Sprague-Dawley rat at 50 mg/kg, po pretreated with Escherichia coli lipopolysaccharide (Rvb=123 +/- 63.4 min); assay type: ADME, organism-based; parameters: dose 50 mg/kg, route oral; settings: in vivo
[9] = Cmax in Sprague-Dawley rat at 50 mg/kg, po pretreated with Escherichia coli lipopolysaccharide (Rvb=2.35 +/- 1.19 ug/ml); assay type: ADME, organism-based; parameters: dose 50 mg/kg, route oral; settings: in vivo
[10] = Tmax in Sprague-Dawley rat at 50 mg/kg, po pretreated with Escherichia coli lipopolysaccharide (Rvb=180 min); assay type: ADME, organism-based; parameters: dose 50 mg/kg, route oral; settings: in vivo
[11] = Renal clearance in Sprague-Dawley rat at 50 mg/kg, po pretreated with Escherichia coli lipopolysaccharide (Rvb=4.21 +/- 1.81 ml/min/kg); assay type: ADME, organism-based, Kidney; parameters: dose 50 mg/kg, route oral; settings: in vivo, read-out: CL_renal
[12] = Oral bioavailability in Sprague-Dawley rat at 50 mg/kg, po pretreated with Escherichia coli lipopolysaccharide (Rvb=38.8%); assay type: ADME, organism-based; settings: in vivo
[13] = Drug excretion in Sprague-Dawley rat urine assessed as unchanged drug at 50 mg/kg, iv after 24 hrs pretreated with Escherichia coli lipopolysaccharide (Rvb=16.5 +/- 2.32 %); assay type: ADME, organism-based; parameters: dose 50 mg/kg, route intravenous; settings: read-out: Drug uptake
[14] = Drug excretion in Sprague-Dawley rat urine assessed as unchanged drug at 50 mg/kg, po after 24 hrs pretreated with Escherichia coli lipopolysaccharide (Rvb=4.78 +/- 3.28 %); assay type: ADME, organism-based; parameters: dose 50 mg/kg, route oral; settings: read-out: Drug uptake
[15] = Drug absorption in Sprague-Dawley rat gastrointestinal tract at 50 mg/kg, iv after 24 hrs pretreated with Escherichia coli lipopolysaccharide (Rvb=8.53 +/- 4.64 %); assay type: ADME, organism-based; parameters: dose 50 mg/kg, route intravenous
[16] = Drug absorption in Sprague-Dawley rat gastrointestinal tract at 50 mg/kg, po after 24 hrs pretreated with Escherichia coli lipopolysaccharide (Rvb=5.73 +/- 4.57 %); assay type: ADME, organism-based; parameters: dose 50 mg/kg, route oral

AUC (Rattus norvegicus [1]): 2880 µg/min/mL
half-life [2]: 2.55 h
clearance [3]: 19.4 mL/min/kg
CL renal [4]: 4.27 mL/min/kg
CL (Rattus norvegicus [5]): 15.1 mL/min/kg
Vd [6]: 3.28 L/kg
AUC (Rattus norvegicus [7]): 1460 µg/min/mL
half-life [8]: 2.33 h
Cmax [9]: 5030 ng/mL
Tmax [10]: 3 h
CL renal [11]: 3.17 mL/min/kg
bioavailability [12]: 50.7%
dose excreted at 24 h [13]: 23.8%
dose excreted at 24 h [14]: 9.54%
percent of dose recovered from gastrointestinal tract at 24 h [15]: 5.31%
percent of dose recovered from gastrointestinal tract at 24 h [16]: 9.63%
SMILES: CC[C@H]1OC(=O)[C@H](C)C(=O)[C@H](C)[C@@H](O[C@@H]2O[C@H](C)C[C@H](N(C)C)[C@H]2O)[C@](C)(OC)C[C@@H](C)C(=O)[C@H](C)[C@H]2N(CCCCn3cnc(-c4cccnc4)c3)C(=O)O[C@]12C [TELITHROMYCIN]
